Assay results reported in patent US8846933B2, “N-link hydroxamic acid derivatives useful as antibacterial agents” (Pfizer Inc., priority 2009, dated 2014).

What was measured:
[1] = test system: Pseudomonas aeruginosa UI-18: Wild-type (PA-7); assay: MIC determination (CLSI), strain PA-7; format: cell-based; conditions: strain PA-7, unit assumed
Procedure, shortened: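 MIC determined by broth dilution per CLSI M7-A7 guidelines with M100-S18 interpretive standards. Test organism: wild-type Pseudomonas aeruginosa UI-18, designated PA-7.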

[2] = test system: Escherichia coli EC-1: VOGEL, mouse virulent; assay: MIC determination (CLSI), strain EC-1; format: cell-based; conditions: strain EC-1, unit assumed
Procedure, shortened: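 The mouse-virulent VOGEL isolate of E. coli, EC-1, served as test organism. Minimum inhibitory concentration was measured by CLSI dilution methodology (M7-A7; M100-S18 standards).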

[3] = generated in the same manner as in Table 4

| Compound | PA-7 (MIC) [1] | EC-1 (MIC) [2] | PA-7 (MIC) [1, 3] | EC-1 (MIC) [2, 3] |
| --- | --- | --- | --- | --- |
| CC(CCn1ccc(-c2ccc(OCCCCCN3CCOCC3)cc2)cc1=O)(C(=O)NO)S(C)(=O)=O (stereo not drawn) [Example 277, N-hydroxy-2-methyl-2-(methylsulfonyl)-4-[4-{4-[(5-morpholin-4-ylpentyl)oxy]phenyl}-2-oxopyridin-1(2H)-yl]butanamide] | 4 µg/mL | 1 µg/mL |  |  |
| Cc1nnn(-c2ccc(-c3ccn(CC[C@](C)(C(=O)NO)S(C)(=O)=O)c(=O)c3)cc2)c1C [Example 416, (2R)-4-{4-[4-(4,5-dimethyl-1H-1,2,3-triazol-1-yl)phenyl]-2-oxopyridin-1(2H)-yl}-N-hydroxy-2-methyl-2-(methylsulfonyl)butanamide] | 32 µg/mL | 64 µg/mL |  |  |
| CC(C)(C)NC(=O)c1cc(-c2ccn(CCC(C)(C(=O)NO)S(C)(=O)=O)c(=O)c2)ccc1F (stereo not drawn) [Example 211, N-tert-butyl-2-fluoro-5-{1-[4-(hydroxyamino)-3-methyl-3-(methylsulfonyl)-4-oxobutyl]-2-oxo-1,2-dihydropyridin-4-yl}benzamide] | > 64 µg/mL | 64 µg/mL |  |  |
| C[C@@](CCn1ccc(-c2ccc3ncc(F)cc3c2)cc1=O)(C(=O)NO)S(C)(=O)=O [Example 316, (2R)-4-[4-(3-fluoroquinolin-6-yl)-2-oxopyridin-1(2H)-yl]-N-hydroxy-2-methyl-2-(methylsulfonyl)butanamide] | 2 µg/mL | 4 µg/mL |  |  |
| C[C@@](CCn1ccc(-c2ccc(OC[C@H]3CC[C@@H](O)CC3)c(F)c2)cc1=O)(C(=O)NO)S(C)(=O)=O [Example 348, (2R)-4-[4-{3-fluoro-4-[(cis-4-hydroxycyclohexyl)methoxy]phenyl}-2-oxopyridin-1(2H)-yl]-N-hydroxy-2-methyl-2-(methylsulfonyl)butanamide] | 1 µg/mL | 0.25 µg/mL |  |  |
| CC(=O)c1ccc(-c2ccn(CCC(C)(C(=O)NO)S(C)(=O)=O)c(=O)c2)s1 (stereo not drawn) [Example 167, 4-[4-(5-acetyl-2-thienyl)-2-oxopyridin-1(2H)-yl]-N-hydroxy-2-methyl-2-(methylsulfonyl)butanamide] |  |  | 16 µg/mL | 16 µg/mL |
| CC1(O)CCC(Oc2ccc(-c3ccn(CC[C@](C)(C(=O)NO)S(C)(=O)=O)c(=O)c3)cc2F)CC1 (stereo partly drawn) [Example 349, (2R)-4-[4-{3-fluoro-4-[(4-hydroxy-4-methylcyclohexyl)oxy]phenyl}-2-oxopyridin-1(2H)-yl]-N-hydroxy-2-methyl-2-(methylsulfonyl)butanamide] | 4 µg/mL | 0.5 µg/mL |  |  |
| CC(CCn1ccc(-c2ccc(-c3cc(CO)no3)cc2)cc1=O)(C(=O)NO)S(C)(=O)=O (stereo not drawn) [Example 95, N-hydroxy-4-[4-{4-[3-(hydroxymethyl)isoxazol-5-yl]phenyl}-2-oxopyridin-1(2H)-yl]-2-methyl-2-(methylsulfonyl)butanamide] |  |  | 8 µg/mL | 8 µg/mL |
| C[C@@](CCn1ccc(-c2ccc(OCCCCCO)cc2)cc1=O)(C(=O)NO)S(C)(=O)=O [Example 280, (2R)-N-hydroxy-4-[4-{4-[(5-hydroxypentyl)oxy]phenyl}-2-oxopyridin-1(2H)-yl]-2-methyl-2-(methylsulfonyl)butanamide] | 0.5 µg/mL | 0.25 µg/mL |  |  |
| CC(CCn1ccc(-c2ccc(-c3ccc(F)cc3)nc2)cc1=O)(C(=O)NO)S(C)(=O)=O (stereo not drawn) [Example 281, 4-[6-(4-fluorophenyl)-2′-oxo-3,4′-bipyridin-1′(2′H)-yl]-N-hydroxy-2-methyl-2-(methylsulfonyl)butanamide] | 8 µg/mL | 0.5 µg/mL |  |  |
| CCOc1ccc(-c2ccn(CCC(C)(C(=O)NO)S(C)(=O)=O)c(=O)c2)cc1F (stereo not drawn) [Example 184, 4-[4-(4-ethoxy-3-fluorophenyl)-2-oxopyridin-1(2H)-yl]-N-hydroxy-2-methyl-2-(methylsulfonyl)butanamide] | 2 µg/mL | 0.5 µg/mL |  |  |
| Cc1ccc(C#N)c(Oc2ccc(-c3ccn(CC[C@](C)(C(=O)NO)S(C)(=O)=O)c(=O)c3)cc2)n1 [Example 438, (2R)-4-[4-{4-[(3-cyano-6-methylpyridin-2-yl)oxy]phenyl}-2-oxopyridin-1(2H)-yl]-N-hydroxy-2-methyl-2-(methylsulfonyl)butanamide] | 8 µg/mL | 4 µg/mL |  |  |
| COCCOCCOc1ccc(-c2ccn(CC[C@](C)(C(=O)NO)S(C)(=O)=O)c(=O)c2)cc1 [Example 403, (2R)-N-hydroxy-4-[4-{4-[2-(2-methoxyethoxy)ethoxy]phenyl}-2-oxopyridin-1(2H)-yl]-2-methyl-2-(methylsulfonyl)butanamide] | 4 µg/mL | 1 µg/mL |  |  |
| CC(CCn1ccc(-c2ccc(OCCO)c(Cl)c2Cl)cc1=O)(C(=O)NO)S(C)(=O)=O (stereo not drawn) [Example 234, 4-{4-[2,3-dichloro-4-(2-hydroxyethoxy)phenyl]-2-oxopyridin-1(2H)-yl}-N-hydroxy-2-methyl-2-(methylsulfonyl)butanamide] | 32 µg/mL | 64 µg/mL |  |  |
| COc1ccc2cc(-c3ccn(CC[C@](C)(C(=O)NO)S(C)(=O)=O)c(=O)c3)ccc2n1 [Example 328, (2R)-N-hydroxy-4-[4-(2-methoxyquinolin-6-yl)-2-oxopyridin-1(2H)-yl]-2-methyl-2-(methylsulfonyl)butanamide] | 1 µg/mL | 1 µg/mL |  |  |
| CC(CCn1ccc(-c2cnc3ccccc3c2)cc1=O)(C(=O)NO)S(C)(=O)=O (stereo not drawn) [Example 125, N-hydroxy-2-methyl-2-(methylsulfonyl)-4-(2-oxo-4-quinolin-3-ylpyridin-1(2H)-yl)butanamide] |  |  | 32 µg/mL | 16 µg/mL |
| CC(CCn1ccc(-c2cccc(Cl)c2)cc1=O)(C(=O)NO)S(C)(=O)=O (stereo not drawn) [Example 114, 4-[4-(3-chlorophenyl)-2-oxopyridin-1(2H)-yl]-N-hydroxy-2-methyl-2-(methylsulfonyl)butanamide] |  |  | 4 µg/mL | 2 µg/mL |
| COc1ccc(Oc2ccc(-c3ccn(CCC(C)(C(=O)NO)S(C)(=O)=O)c(=O)c3)cc2)cc1 (stereo not drawn) [Example 139, N-hydroxy-4-{4-[4-(4-methoxyphenoxy)phenyl]-2-oxopyridin-1(2H)-yl}-2-methyl-2-(methylsulfonyl)butanamide] |  |  | 8 µg/mL | 0.125 µg/mL |
| CC(CCn1ccc(-c2ccc(OCCCN3CCC(F)(F)C3)cc2)cc1=O)(C(=O)NO)S(C)(=O)=O (stereo not drawn) [Example 93, 4-[4-{4-[3-(3,3-difluoropyrrolidin-1-yl)propoxy]phenyl}-2-oxopyridin-1(2H)-yl]-N-hydroxy-2-methyl-2-(methylsulfonyl)butanamide] |  |  | 8 µg/mL | 1 µg/mL |
| CC(CCn1ccc(-c2cc3nccc(Cl)c3s2)cc1=O)(C(=O)NO)S(C)(=O)=O (stereo not drawn) [Example 128, 4-[4-(7-chlorothieno[3,2-b]pyridin-2-yl)-2-oxopyridin-1(2H)-yl]-N-hydroxy-2-methyl-2-(methylsulfonyl)butanamide] |  |  | 64 µg/mL | 32 µg/mL |
| C[C@@](CCn1ccc(-c2ccc(Oc3ccccn3)cc2)cc1=O)(C(=O)NO)S(C)(=O)=O [Example 436, (2R)-N-hydroxy-2-methyl-2-(methylsulfonyl)-4-{2-oxo-4-[4-(pyridin-2-yloxy)phenyl]pyridin-1(2H)-yl}butanamide] | 2 µg/mL | 0.5 µg/mL |  |  |
| CC(CCn1ccc(-c2ccc(OCCCN3CCOCC3)cc2)cc1=O)(C(=O)NO)S(C)(=O)=O (stereo not drawn) [Example 71, N-hydroxy-2-methyl-2-(methylsulfonyl)-4-{4-[4-(3-morpholin-4-ylpropoxy)phenyl]-2-oxopyridin-1(2H)-yl}butanamide] |  |  | 4 µg/mL | 2 µg/mL |
| COc1ccc(-c2ccn(CCC(C)(C(=O)NO)S(C)(=O)=O)c(=O)c2)c(C)n1 (stereo not drawn) [Example 200, N-hydroxy-4-(6-methoxy-2-methyl-2′-oxo-3,4′-bipyridin-1′(2′H)-yl)-2-methyl-2-(methylsulfonyl)butanamide] | 16 µg/mL | 32 µg/mL |  |  |
| CC(CCn1ccc(-c2ccc3cnccc3c2)cc1=O)(C(=O)NO)S(C)(=O)=O (stereo not drawn) [Example 260, N-hydroxy-4-(4-isoquinolin-6-yl-2-oxopyridin-1(2H)-yl)-2-methyl-2-(methylsulfonyl)butanamide] | 4 µg/mL | 4 µg/mL |  |  |
| CC(CCn1ccc(-c2ccc(C(=O)CO)cc2)cc1=O)(C(=O)NO)S(C)(=O)=O (stereo not drawn) [Example 73, 4-[4-(4-glycoloylphenyl)-2-oxopyridin-1(2H)-yl]-N-hydroxy-2-methyl-2-(methylsulfonyl)butanamide] |  |  | 64 µg/mL | > 64 µg/mL |
| Cc1cnc2cc(-c3ccn(CCC(C)(C(=O)NO)S(C)(=O)=O)c(=O)c3)ccc2c1 (stereo not drawn) [Example 308, N-hydroxy-2-methyl-4-[4-(3-methylquinolin-7-yl)-2-oxopyridin-1(2H)-yl]-2-(methylsulfonyl)butanamide] | 4 µg/mL | 2 µg/mL |  |  |
| CC(CCn1ccc(-c2ccc3c(ccn3CCCO)c2)cc1=O)(C(=O)NO)S(C)(=O)=O (stereo not drawn) [Example 267, N-hydroxy-4-{4-[1-(3-hydroxypropyl)-1H-indol-5-yl]-2-oxopyridin-1(2H)-yl}-2-methyl-2-(methylsulfonyl)butanamide] | 8 µg/mL | 2 µg/mL |  |  |
| COc1ccc(-c2ccn(CCC(C)(C(=O)NO)S(C)(=O)=O)c(=O)c2)cc1 (stereo not drawn) [Example 170, N-hydroxy-4-[4-(4-methoxyphenyl)-2-oxopyridin-1(2H)-yl]-2-methyl-2-(methylsulfonyl)butanamide] |  |  | 1 µg/mL | 1 µg/mL |
| CC(CCn1ccc(-c2ccc3ncccc3c2)cc1=O)(C(=O)NO)S(C)(=O)=O (stereo not drawn) [Example 254] | 4 µg/mL | 4 µg/mL |  |  |
| Cc1cc(-c2ccn(CCC(C)(C(=O)NO)S(C)(=O)=O)c(=O)c2)ccc1OCCO (stereo not drawn) [Example 235, N-hydroxy-4-{4-[4-(2-hydroxyethoxy)-3-methylphenyl]-2-oxopyridin-1(2H)-yl}-2-methyl-2-(methylsulfonyl)butanamide] | 8 µg/mL | 8 µg/mL |  |  |
